In PubChem BioAssay (NCI):
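Interpolation was linear, between the two tested concentrations surrounding the appropriate level; five concentrations were tested over 48 hours in 96-well plates. Abbreviation: GI50, concentration required for 50% inhibition of growth. TGI is the concentration that stops growth completely.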

Tests used:
Test in all cases: DTP human tumour cell line panel, 48 h
[1] = tested on: A498 renal
[2] = tested on: CAKI-1 renal
[3] = tested on: COLO 205 colon
[4] = tested on: EKVX NSCLC
[5] = tested on: HOP-62 NSCLC
[6] = tested on: SF-295 CNS
[7] = tested on: SK-MEL-2 melanoma
[8] = tested on: U251 CNS
[9] = tested on: NCI/ADR-RES ovarian
[10] = tested on: MDA-MB-231 breast

SMILES: CCCCCCCCC(C)CCCCCCCCC(=O)OCC(COP(=O)([O-])OCC[N+](C)(C)C)OC(=O)CCCCCCCCC(C)CCCCCCCC (stereo not given)
- TGI [1]: > 100 µM
- TGI [2]: > 100 µM
- TGI [3]: > 100 µM
- TGI [4]: > 100 µM
- TGI [5]: > 100 µM
- TGI [6]: > 100 µM
- TGI [7]: > 100 µM
- TGI [8]: > 100 µM

SMILES: Nn1c(-c2cccc(Cl)c2)nc2ccccc2c1=O
- TGI [1]: > 100 µM
- TGI [2]: > 100 µM
- TGI [3]: > 100 µM
- TGI [4]: > 100 µM
- TGI [5]: > 100 µM
- TGI [6]: > 100 µM
- TGI [7]: > 100 µM
- TGI [8]: > 100 µM

SMILES: COC(=O)C12C34C=CC5(CCC6(C=CC1(CC3)O6)C52C(=O)OC)O4 (stereo not given)
- TGI [1]: > 100 µM
- TGI [2]: > 100 µM
- TGI [3]: > 100 µM
- TGI [4]: > 100 µM
- TGI [5]: > 100 µM
- TGI [6]: > 100 µM
- TGI [7]: > 100 µM
- TGI [8]: > 100 µM

SMILES: O=C(COC(=O)c1cccc2c(=O)c3ccccc3[nH]c12)Nc1ccc(Cl)cc1
- TGI [1]: 60 µM
- TGI [2]: > 100 µM
- TGI [3]: > 100 µM
- TGI [4]: > 100 µM
- TGI [5]: 78.5 µM
- TGI [6]: > 100 µM
- TGI [8]: > 100 µM

SMILES: C[C@]12CC(C=O)C(=O)C(O)=C1CC[C@@H]1C2CC[C@@]2(C)C1CC[C@]2(C)O (stereo not given in full)
- TGI [1]: 45.9 µM
- TGI [3]: 38.3 µM
- TGI [4]: 96 µM
- TGI [5]: > 100 µM
- TGI [6]: 66.6 µM
- TGI [7]: 26.6 µM
- TGI [8]: 44.9 µM

SMILES: C=CC(=O)Nc1ccccc1CC(c1c[nH]c2ccccc12)c1c[nH]c2ccccc12
- TGI [2]: 37.7 µM
- TGI [3]: 30.9 µM
- TGI [4]: 51 µM
- TGI [5]: 35.1 µM
- TGI [6]: 49.1 µM
- TGI [7]: 32.7 µM

SMILES: CC(C)N1C(C)[C@@H](c2ccccc2)O[P@@]1(=O)CC1=CCCCC1 (stereo not given in full)
- TGI [1]: > 100 µM
- TGI [3]: > 100 µM
- TGI [4]: > 100 µM
- TGI [5]: > 100 µM
- TGI [6]: > 100 µM
- TGI [7]: > 100 µM
- TGI [8]: > 100 µM

SMILES: CN(CCCN1C(=O)c2cccc3cc([N+](=O)[O-])cc(c23)C1=O)CCN(C)CCCN1C(=O)c2cccc3cc([N+](=O)[O-])cc(c23)C1=O
- TGI [1]: > 39.3 µM
- TGI [2]: > 39.3 µM
- TGI [3]: > 39.3 µM
- TGI [4]: > 39.3 µM
- TGI [5]: > 39.3 µM
- TGI [6]: > 39.3 µM
- TGI [7]: > 39.3 µM
- TGI [8]: > 39.3 µM

SMILES: CCOC(=O)/C(C#N)=C\Sc1ccccc1
- TGI [2]: 65.9 µM
- TGI [3]: 38.4 µM
- TGI [4]: > 100 µM
- TGI [5]: 86.5 µM
- TGI [6]: 48.5 µM
- TGI [7]: 74.3 µM
- TGI [8]: 29 µM

SMILES: COC(=O)c1ccc(C(=O)OC)c2nc3cc(Cl)ccc3nc12
- TGI [1]: > 100 µM
- TGI [2]: > 100 µM
- TGI [3]: > 100 µM
- TGI [4]: > 100 µM
- TGI [5]: > 100 µM
- TGI [6]: > 100 µM
- TGI [7]: > 100 µM
- TGI [8]: > 100 µM

SMILES: COc1ccc2c(CCCc3ccc(Cl)cc3Cl)c3[n+](cc2c1OC)CCc1cc2c(cc1-3)OCO2
- GI50 [1]: 1.76 µM
- TGI [1]: 9 µM
- GI50 [2]: 5.1 µM
- TGI [2]: 23.7 µM
- GI50 [4]: 0.467 µM
- TGI [4]: 1.99 µM
- GI50 [9]: 7.74 µM
- TGI [9]: 54.2 µM

SMILES: CCC[CH2][Sn]([CH2]CCC)([O]C(=O)c1cc(F)ccc1F)[O]C(=O)c1cc(F)ccc1F
- GI50 [1]: 1.25 µM
- TGI [1]: 2.57 µM
- GI50 [2]: 1.06 µM
- TGI [2]: 2.27 µM
- GI50 [3]: 1.12 µM
- TGI [3]: 2.32 µM
- GI50 [4]: 1.26 µM
- TGI [4]: 2.51 µM
- GI50 [5]: 2.39 µM
- TGI [5]: 4.04 µM
- GI50 [6]: 1.77 µM
- TGI [6]: 3.17 µM
- GI50 [7]: 0.649 µM
- TGI [7]: 1.87 µM
- GI50 [8]: 0.888 µM
- TGI [8]: 2.11 µM

SMILES: O=[N+]([O-])c1cccc(S(=O)(=O)N/N=C/c2cc(I)cc([N+](=O)[O-])c2O)c1
- TGI [1]: > 100 µM
- TGI [2]: 50.9 µM
- TGI [3]: 31.7 µM
- TGI [4]: 80 µM
- TGI [5]: 57.2 µM
- TGI [6]: 98.7 µM
- TGI [7]: 39 µM
- TGI [8]: 57.8 µM

SMILES: CCOC(=O)C(=O)Nc1c(C)cccc1C(C)(C)C
- TGI [2]: > 100 µM
- TGI [3]: > 100 µM
- TGI [4]: > 100 µM
- TGI [5]: > 100 µM
- TGI [6]: > 100 µM
- TGI [7]: > 100 µM
- TGI [8]: > 100 µM

SMILES: CCCS(=O)c1nc(COC(=O)NC)c(COC(=O)NC)n1C (stereo not given)
- TGI [1]: > 100 µM
- TGI [2]: > 100 µM
- TGI [3]: > 100 µM
- TGI [4]: > 100 µM
- TGI [5]: > 100 µM
- TGI [9]: > 100 µM
- TGI [6]: > 100 µM
- TGI [7]: > 100 µM
- TGI [8]: > 100 µM

SMILES: Cc1ccc(C2[C@H]3C(=O)N(c4ccc(Cc5ccc(N6C(=O)[C@@H]7ON(c8ccccc8)C(c8ccc(C)cc8)[C@@H]7C6=O)cc5)cc4)C(=O)[C@H]3ON2c2ccccc2)cc1 (stereo not given in full)
- TGI [1]: > 100 µM
- TGI [2]: > 100 µM
- TGI [3]: > 100 µM
- TGI [5]: > 100 µM
- TGI [6]: > 100 µM
- TGI [7]: > 100 µM
- TGI [8]: > 100 µM

SMILES: O=[N+]([O-])c1ccc(C2SCc3nc4ccccc4n32)cc1 (stereo not given)
- TGI [1]: > 100 µM
- TGI [2]: > 100 µM
- TGI [3]: > 100 µM
- TGI [4]: > 100 µM
- TGI [5]: > 100 µM
- TGI [6]: > 100 µM
- TGI [7]: > 100 µM
- TGI [8]: > 100 µM

SMILES: O=C1NC2C3CC(OCc4ccccc4)(OCc4ccccc4)C2OC3O1 (stereo not given)
- TGI [1]: > 50 µM
- TGI [2]: > 50 µM
- TGI [3]: > 50 µM
- TGI [5]: > 50 µM
- TGI [6]: > 50 µM
- TGI [7]: > 50 µM

SMILES: O=C(NCc1ccco1)C1CCN(S(=O)(=O)c2ccc(Cl)cc2)CC1
- GI50 [2]: > 100 µM
- TGI [2]: > 100 µM
- GI50 [3]: > 100 µM
- TGI [3]: > 100 µM
- GI50 [5]: > 100 µM
- TGI [5]: > 100 µM
- GI50 [10]: > 100 µM
- TGI [10]: > 100 µM
- GI50 [9]: > 100 µM
- TGI [9]: > 100 µM
- GI50 [6]: 81.6 µM
- TGI [6]: > 100 µM
- GI50 [7]: > 100 µM
- TGI [7]: > 100 µM
- GI50 [8]: > 100 µM
- TGI [8]: > 100 µM

SMILES: COc1cc2c3c(n([C@@H]4CCOC4)c(=O)c2cc1OC)-c1cc2c(cc1C3=O)OCO2
- GI50 [3]: 0.0193 µM
- TGI [3]: > 100 µM
- GI50 [9]: < 0.01 µM
- TGI [9]: > 100 µM
- GI50 [6]: < 0.01 µM
- TGI [6]: 0.0219 µM

SMILES: C=C1C(=O)O[C@H]2[C@H]1CC/C(COC(=O)CCCCCCCC(=O)OC/C1=C/CC[C@@]3(C)O[C@H]3[C@H]3OC(=O)C(=C)[C@@H]3CC1)=C\CC[C@@]1(C)O[C@@H]21
- GI50 [1]: 12.3 µM
- TGI [1]: 28.7 µM
- GI50 [3]: 1.76 µM
- TGI [3]: 3.78 µM
- GI50 [4]: 2.55 µM
- TGI [4]: 8.87 µM
- GI50 [5]: 2.19 µM
- TGI [5]: 5.68 µM
- GI50 [10]: 1.98 µM
- TGI [10]: 4.61 µM
- GI50 [9]: 3.35 µM
- TGI [9]: > 100 µM
- GI50 [6]: 3.6 µM
- TGI [6]: 15.2 µM
- GI50 [7]: 11.3 µM
- TGI [7]: 31.5 µM
- GI50 [8]: 2.13 µM
- TGI [8]: 5.37 µM

SMILES: COc1cc2c3cc1Oc1c(OC)c(OC)cc4c1[C@@H](Cc1ccc(O)c(c1)Oc1ccc(cc1)C[C@@H]3N(C)CC2)N(C)CC4
- TGI [1]: 38.5 µM
- TGI [2]: 19.7 µM
- TGI [4]: 31.3 µM
- TGI [5]: 36 µM
- TGI [6]: 30.9 µM
- TGI [7]: 30.9 µM
- TGI [8]: 21.7 µM
